Experimental findings from US20120295960A1, “TREATMENT REGIMEN FOR PARKINSON'S DISEASE” (priority 2011, published 2012) are described below.

The subject of the series is MPTP macaques. Put plainly: Dyskinesia studies in drug-naive MPTP primates (video dyskinesia analysis, L-Dopa and apomorphine challenge). From the text:
Neurotoxin MPTP was first administrated to 23 macaques until they developed severe Parkinsonism, these were then divided into experimental groups according to the following experiments: • 1. […] The animals were then observed from 2 up to 44 months. A subset of these primates were included for histology, microdialysis, electrophysiology, and metabolism studies. • 2. […] For the latter group, five MPTP macaques received daily oral L-Dopa for 12 weeks (MPTP-L-Dopa group, n=5). • 3. In the third experiment the potential of dyskinesia induction in MPTP macaques was studied by challenging them with a short acting D1/D2 dopaminergic agonist, apomorphine, then with an acute oral dose of L-Dopa. […] Animals were then challenged with L-Dopa and the number of dyskinesias was assessed with a specific software (The Observer®, Noldus)
All animals were assessed daily for their general clinical condition with special attention paid to the nutritional status. At the same time, the general neurological state of each macaque was assessed both pre- and post-lentiviral injections. To objectively quantify our neurological observations, animals were video-taped for 30 minutes before MPTP lesioning and at regular intervals following viral injections. The videos were then analyzed off-line by an examiner blinded to the experimental conditions. […]

Consider `CN1CCc2cccc3c2[C@H]1Cc1ccc(O)c(O)c1-3` [apomorphine], for which, for the setting “MPTP-long term and MPTP-LacZ primates”, the “locomotor activity after acute administration” value was “levels similar to that of normal primates”. Moreover, the “dyskinesia after acute administration” value (MPTP-long term and MPTP-Lenti-LacZ animals) is “debilitating choreiform and dystonic movements”.
